Test results as given in patent US6472526B1, “Imidazole derivatives having an inhibitory activity for farnesyl transferase and process for preparation thereof” (LG Chemical Ltd., priority 1997, dated 2002).
pIC50: −log10 of the molar value.

How the values were obtained:
Ras farnesyl transferase [1] = molecular target: T1, Ras farnesyl transferase (Homo sapiens, UniProt P49354+P49356); experiment: In vitro inhibitory activity for Ras farnesyl transferase, K-Ras substrate; type: biochemical
T1 construct: made in house

Ras farnesyl transferase [2] = molecular target: T1, Ras farnesyl transferase; experiment: In vitro inhibitory activity for Ras farnesyl transferase, H-Ras substrate; type: biochemical
Ras farnesyl transferase [3] = molecular target: T2, Ras farnesyl transferase (Rattus norvegicus, UniProt Q02293+Q04631); experiment: In vivo (cellular) inhibitory activity for Ras farnesyl transferase, Rat2 cell line which expresses C-Harvey-Ras protein; type: cell-based
T2 construct: endogenous in cells; host or cells: Rat2 fibroblasts transformed with H-Ras or with an H-Ras/K-Ras C-terminus fusion
Summary of the method: (§1)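 Farnesylated versus unfarnesylated Ras bands were measured by autoradiography after Y13-259 immunoprecipitation and SDS-PAGE, giving CIC50 as 50% inhibition of farnesylation. Rat2 cells expressing H-Ras or an H-Ras fusion with K-Ras polybasic C-terminus got compound (1% DMSO), then [35S]methionine from 4 h onward for 20 h.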

Ras farnesyl transferase [4] = molecular target: T2, Ras farnesyl transferase; experiment: In vivo (cellular) inhibitory activity for Ras farnesyl transferase, Rat2 cell line transformed with fused protein of H-Ras substituted with polybasic lysine domain at C-terminus of K-Ras; type: cell-based
Summary of the method: as §1

[5] = in vitro farnesyl transferase assay, K-Ras, read-out: K-Ras IC50
[6] = recombinant farnesyl transferase 4.5 nM, Ras substrate protein 1.5 μM, tritium-farnesylpyrophosphate 0.15 μM, 30 minutes at 37° C., read-out: H-Ras IC50
[7] = Rat2 cell line expressing C-Harvey-Ras, concentration inhibiting 50% of farnesyl bonding of Ras protein, read-out: H-Ras CIC50
[8] = Rat2 cell line transformed with H-Ras fused with polybasic lysine domain of K-Ras C-terminus, concentration inhibiting 50% of farnesyl bonding, read-out: K-Ras CIC50

| Structure (SMILES) | pIC50 (Ras farnesyl transferase [1]; [5]) | pIC50 (Ras farnesyl transferase [2]; [6]) | pIC50 (Ras farnesyl transferase [3]; [7]) | pIC50 (Ras farnesyl transferase [4]; [8]) | pIC50 (Ras farnesyl transferase [1]) | pIC50 (Ras farnesyl transferase [2]) | pIC50 (Ras farnesyl transferase [3]) | pIC50 (Ras farnesyl transferase [4]) |
| --- | --- | --- | --- | --- | --- | --- | --- | --- |
| CCOC(=O)c1nc(Cc2cnc[nH]2)oc1-c1cccc2ccccc12 [Compound 142, 4-Ethoxycarbonyl-2-(1H-imidazol-5-ylmethyl)-5-(naphthalen-1-yl)oxazole] | < 4.30 | 4.92 | < 4.30 | < 4.30 |  |  |  |  |
| COCCN(C)C(=O)c1cn(Cc2cncn2CCc2ccc(Br)cc2)cc1-c1cccc2ccccc12 [Compound 33, 1-[1-(4-Bromo)phenethyl-1H-imidazol-5-yl]methyl-3-[N-(2-methoxyethyl)-N-methyl]carbamoyl-4-(naphthalen-1-yl)-1H-pyrrole] | 8.52 | 8.70 | 7.74 | 4.30 to 5.00 |  |  |  |  |
| N#Cc1ccc(C(=O)c2cn(Cc3c[nH]cn3)cc2-c2cccc3ccccc23)cc1 [Compound 60] | 5.00 to 7.00 | 6.70 | 4.30 to 6.00 | 4.00 to 5.00 |  |  |  |  |
| N#Cc1ccc(Cn2cncc2Cn2cc(C(=S)N3CCOCC3)c(-c3cccc4ccccc34)c2)cc1 [Compound 113, 1-[1-(4-Cyanobenzyl)-1H-imidazol-5-yl]methyl-3-(morpholin-4-yl)thiocarbonyl-4-(naphthalen-1-yl)-1H-pyrrole] | > 7.00 | 8.40 | > 7.00 | 4.00 to 5.00 |  |  |  |  |
| CN(C)CCN(C)C(=O)c1cn(Cc2cncn2Cc2ccc3c(c2)OCO3)cc1-c1cccc2ccccc12 [Compound 4, 3-{N-[2-(N,N-Dimethylamino)ethyl]-N-methyl}carbamoyl-1-[1-(3,4-methylendioxybenzyl)-1H-imidazol-5-ylmethyl]-4-(naphthalen-1-yl)-1H-pyrrole] | 6.12 | 7.33 | 6.00 to 7.00 | 4.00 to 5.00 |  |  |  |  |
| O=C(c1ccc(-c2ccccc2)cc1)c1cn(Cc2c[nH]cn2)cc1-c1cccc2ccccc12 [Compound 66] | 5.00 to 7.00 | 6.92 | 4.30 to 6.00 | 4.00 to 5.00 |  |  |  |  |
| COc1ccc(C(=O)c2cn(Cc3c[nH]cn3)cc2-c2cccc3ccccc23)cc1 [Compound 54] | 5.00 to 7.00 | 6.41 | 4.30 to 6.00 | 4.00 to 5.00 |  |  |  |  |
| CN1CCN(C(=O)c2cn(Cc3cncn3CCc3ccc(O)cc3)cc2-c2cccc3ccccc23)CC1 [Compound 43, 1-[1-(4-Hydroxy)phenethyl-1H-imidazol-5-yl]methyl-3-[4-mmethylpiperazin-1-yl]carbonyl-4-(naphthalen-1-yl)-1H-pyrrole] | 8.70 | 9.00 | 7.82 | 5.00 to 5.30 |  |  |  |  |
| COCCN(C)C(=O)c1cn(Cc2cncn2CCc2ccccc2Cl)cc1-c1cccc2ccccc12 [Compound 23, 1-[1-(2-Chloro)phenethyl-1H-imidazol-5-yl]methyl-3-[N-(2-methoxyethyl)-N-methyl]carbamoyl-4-(naphthalen-1-yl)-1H-pyrrole] | 8.70 | 8.70 | 7.64 | 4.30 to 5.00 |  |  |  |  |
| CC(c1ccccc1)n1cncc1Cn1cc(C(=O)N2CCOCC2)c(-c2cccc3ccccc23)c1 (stereo in doubt) [Compound 9, 1-[1-((R)-α-Methylbenzyl)-1H-imidazol-5-ylmethyl]-3-(morpholin-4-yl)carbonyl-4-(naphthalen-1-yl)-1H-pyrrole] | 8.18 | 8.30 | 7.60 | 4.30 to 5.00 |  |  |  |  |
| COc1cccc(C(=O)c2cn(Cc3c[nH]cn3)cc2-c2cccc3ccccc23)c1 [Compound 53] | 5.00 to 7.00 | 6.52 | 4.30 to 6.00 | 4.00 to 5.00 |  |  |  |  |
| O=C(c1cn(Cc2c[nH]cn2)cc1-c1cccc2ccccc12)N1CCNCC1 [Compound 88] | 5.00 to 7.00 | 6.22 | 4.30 to 6.00 | 4.00 to 5.00 |  |  |  |  |
| COCCN(C)C(=O)c1cn(Cc2cncn2CCc2ccc(F)cc2)cc1-c1cccc2ccccc12 [Compound 35, 1-[1-(4-Fluoro)phenethyl-1H-imidazol-5-yl]methyl-3-[N-(2-methoxyethyl)-N-methyl]carbamoyl-4-(naphthalen-1-yl)-1H-pyrrole] | 8.70 | 9.00 | 7.60 | 4.30 to 5.00 |  |  |  |  |
| Cc1ccc(CCn2cncc2Cn2cc(C(=O)N3CCN(C)CC3)c(-c3cccc4ccccc34)c2)cc1 [Compound 38, 1-[1-(4-Methyl)phenethyl-1H-imidazol-5-yl]methyl-3-[4-methylpiperazin-1-yl]carbonyl-4-(naphthalen-1-yl)-1H-pyrrole] | 8.40 | 8.70 | 7.60 | 4.30 to 5.00 |  |  |  |  |
| COCCN(C)C(=O)c1cn(Cc2cncn2CCc2ccc(C)cc2)cc1-c1cccc2ccccc12 [Compound 37, 3-[N-(2-Methoxyethyl)-N-methyl]carbamoyl-1-[1-(4-methyl)phenethyl-1H-imidazol-5-yl]methyl-4-(naphthalen-1-yl)-1H-pyrrole] | 8.52 | 8.70 | 7.60 | 4.30 to 5.00 |  |  |  |  |
| CN1CCN(C(=O)c2cn(Cc3cncn3Cc3ccccc3F)cc2-c2cccc3ccccc23)CC1 [Compound 135, 1-[1-(2-Fluorobenzyl)-1H-imidazol-5-yl]methyl-3-(4-methylpiperazin-1-yl)carbonyl-4-(naphthalen-1-yl)-1H-pyrrole] | 8.40 | 8.62 | 7.52 | 4.30 to 5.00 |  |  |  |  |
| N#Cc1ccc(Cn2cncc2Cn2cc(C(=O)N3CCOCC3)c(-c3cccc4ccccc34)c2)cc1 [Compound 104] | 8.22 | 9.30 | > 7.30 | > 5.00 |  |  |  |  |
| CN1CCN(C(=O)c2cn(Cc3cncn3CCc3ccc(Cl)cc3)cc2-c2cccc3ccccc23)CC1 [Compound 40] | 8.52 | 8.70 | 7.60 | 4.30 to 5.00 |  |  |  |  |
| Cc1ccc(C(=O)c2cn(Cc3c[nH]cn3)cc2-c2cccc3ccccc23)cc1 [Compound 52] | 5.00 to 7.00 | 7.15 | 4.30 to 6.00 | 4.00 to 5.00 |  |  |  |  |
| Cc1cccc(Cn2cncc2Cn2cc(C(=O)N3CCN(C)CC3)c(-c3cccc4ccccc34)c2)c1 [Compound 138, 1-[1-(3-Methylbenzyl)-1H-imidazol-5-yl]methyl-3-(4-methylpiperazin-1-yl)carbonyl-4-(naphthalen-1-yl)-1H-pyrrole] | 8.46 | 8.85 | 7.60 | 4.30 to 5.00 |  |  |  |  |
| CN1CCN(C(=O)c2cn(Cc3cncn3Cc3cccc(Cl)c3)cc2-c2cccc3ccccc23)CC1 [Compound 131, 1-[1-(3-Chlorobenzyl)-1H-imidazol-5-yl]methyl-3-(4-methylpiperazin-1-yl)carbonyl-4-(naphthalen-1-yl)-1H-pyrrole] | 8.64 | 9.00 | 7.90 | 4.30 to 5.00 |  |  |  |  |
| O=C(c1cn(Cc2cncn2CCc2ccccc2)cc1-c1cccc2ccccc12)N1CCOCC1 [Compound 15] | 8.00 | 8.30 | 7.60 | 4.30 to 5.00 |  |  |  |  |
| C[C@@H](c1ccccc1)n1cncc1Cn1cc(C(=O)N2CCOCC2)c(-c2cccc3ccccc23)c1 [Compound 12, 1-[1-((S)-α-Methylbenzyl)-1H-imidazol-5-ylmethyl]-3-(morpholin-4-yl)carbonyl-4-(naphthalen-1-yl)-1H-pyrrole] | 8.18 | 8.30 | 7.60 | 4.30 to 5.00 |  |  |  |  |
| COCCN(C)C(=O)c1cn(Cc2cncn2Cc2cccc(Cl)c2)cc1-c1cccc2ccccc12 [Compound 132, 1-[1-(3-Chlorobenzyl)-1H-imidazol-5-yl]methyl-3-[N-(2-methoxyethyl)-N-methyl]carbamoyl-4-(naphthalen-1-yl)-1H-pyrrole] | 7.96 | 8.46 | 7.60 | 4.30 to 5.00 |  |  |  |  |
| O=C(c1cn(CCn2ccnc2)cc1-c1cccc2ccccc12)N1CCOCC1 [Compound 106] | 4.00 to 5.00 | 6.05 | 4.30 to 6.00 | 4.00 to 5.00 |  |  |  |  |
| COC(=O)[C@H](CC(C)C)NC(=O)c1cn(Cc2cncn2Cc2ccc(C#N)cc2)cc1-c1cccc2ccccc12 [Compound 102] | 4.66 | 6.35 | 4.30 to 6.00 | < 4.30 |  |  |  |  |
| CC(C)C[C@H](NC(=O)c1cn(Cc2cncn2Cc2ccc(C#N)cc2)cc1-c1cccc2ccccc12)C(=O)O [Compound 103] | 5.77 | 7.19 | 5.00 to 7.00 | 4.00 to 5.00 |  |  |  |  |
| COCCN(C)C(=O)c1cn(Cc2cncn2CCCc2ccccc2)cc1-c1cccc2ccccc12 [Compound 27, 3-[N-(2-Methoxyethyl)-N-methyl]carbamoyl-4-(naphthalen-1-yl)-1-[1-(3-pheny)propyl-1H-imidazol-5-yl]methyl-1H-pyrrole] | 8.30 | 8.22 | 7.60 | 4.52 to 5.00 |  |  |  |  |
| COCCN(C)C(=O)c1cn(Cc2cncn2Cc2ccc(Br)cc2)cc1C(=O)c1cccc2ccccc12 [Compound 141] |  |  |  |  | 4.00 to 5.00 | 6.64 | 5.00 to 6.00 | 4.30 to 5.00 |
| COC(=O)[C@H](CCSC)NC(=O)c1cn(CCCc2c[nH]cn2)cc1-c1cccc2ccccc12 [Compound 107, (S)-1-[3-(1H-Imidazol-4-yl)propyl]-3-[1N-(1-methoxycarbonyl-3-methylthio)propyl]carbamoyl-4-(naphthalen-1-yl)-1H-pyrrole] | 5.00 to 7.00 | 5.00 | 4.30 to 6.00 | 4.00 to 5.00 |  |  |  |  |
